Holding throughout (assay): relative viability (nuclei count vs DMSO), 5 days (fraction); higher = more cells survive
Compound in the test “IDH-C35 + Pictilisib”: Cc1ccccc1C(C(=O)NC1CCCCC1)N(C(=O)Cn1ccnc1C)c1cccc(F)c1 [IDH-C35] + CS(=O)(=O)N1CCN(Cc2cc3nc(-c4cccc5[nH]ncc45)nc(N4CCOCC4)c3s2)CC1 [Pictilisib] (partner 1 µM)
In outline:
(§1)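 Lung cancer cell lines were pin-tool dosed in 1536-well plates on the day after seeding, with either a lone drug or a fixed anchor-drug dose plus five library-drug doses (not always all listed) in √10 steps. Nuclei were counted on 4× images after 5 days. Relative viability is the ratio of treated-well to vehicle-well nuclei counts, with each value a median of duplicate plates.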

Compound in the test “IDH-C35 + Vorinostat”: Cc1ccccc1C(C(=O)NC1CCCCC1)N(C(=O)Cn1ccnc1C)c1cccc(F)c1 [IDH-C35] + O=C(CCCCCCC(=O)Nc1ccccc1)NO [Vorinostat] (partner 1 µM)
In outline: as §1

Compound in the test “IDH-C35 + Trametinib”: Cc1ccccc1C(C(=O)NC1CCCCC1)N(C(=O)Cn1ccnc1C)c1cccc(F)c1 [IDH-C35] + CC(=O)Nc1cccc(-n2c(=O)n(C3CC3)c(=O)c3c(Nc4ccc(I)cc4F)n(C)c(=O)c(C)c32)c1 [Trametinib] (partner 0.02 µM)
In outline: as §1

Compound in test [1]: CC1=C(C(=NN1)C)CC2=C(C3=C(S2)N(C(=O)N(C3=O)C)CC(C)C)C(=O)N4C[C@@H](CO4)O + N=C(N)NC(=N)NCCc1ccccc1 [Phenformin] (partner 250 µM)
In outline: as §1

Results on 5 cell lines are retold here after the supplement of paper PMC10307832.

Consider EMC-BAC-2, for which the relative viability with IDH-C35 + Pictilisib (first compound 0.08 µM) was 0.493; with IDH-C35 + Pictilisib (first compound 0.253 µM), 0.55; in the test with IDH-C35 + Pictilisib (first compound 0.8 µM) it was 0.51; in the test with IDH-C35 + Pictilisib (first compound 2.53 µM), 0.487; with IDH-C35 + Pictilisib (first compound 8 µM), 0.521; with IDH-C35 + Vorinostat (first compound 0.08 µM), 0.474. In addition, the relative viability with IDH-C35 + Vorinostat (first compound 0.253 µM) amounted to 0.464; with IDH-C35 + Vorinostat (first compound 0.8 µM), 0.47; in the test with IDH-C35 + Vorinostat (first compound 2.53 µM), 0.528; with IDH-C35 + Vorinostat (first compound 8 µM), 0.542; with IDH-C35 + Trametinib (first compound 0.08 µM) it was 0.888; with IDH-C35 + Trametinib (first compound 0.253 µM) it was 0.816. In addition, the relative viability came to 0.837 with IDH-C35 + Trametinib (first compound 0.8 µM); 0.823 with IDH-C35 + Trametinib (first compound 2.53 µM); 0.833 with IDH-C35 + Trametinib (first compound 8 µM); 0.538 in test [1] (first compound 0.0025 µM); 0.548 in test [1] (first compound 0.007906 µM); 0.518 in test [1] (first compound 0.025 µM). The relative viability was found to be 0.478 in test [1] (first compound 0.07906 µM) and 0.601 in test [1] (first compound 0.25 µM).

On to EPLC-272H, for which the relative viability with IDH-C35 + Pictilisib (first compound 0.08 µM) amounted to 0.369; with IDH-C35 + Pictilisib (first compound 0.253 µM), 0.338; with IDH-C35 + Pictilisib (first compound 0.8 µM), 0.283; with IDH-C35 + Pictilisib (first compound 8 µM) it was 0.329; in the test with IDH-C35 + Vorinostat (first compound 0.08 µM) it was 0.314; with IDH-C35 + Vorinostat (first compound 0.253 µM), 0.406. Further, the relative viability with IDH-C35 + Vorinostat (first compound 0.8 µM) was 0.515; in the test with IDH-C35 + Vorinostat (first compound 2.53 µM) it was 0.494; with IDH-C35 + Vorinostat (first compound 8 µM), 0.403; with IDH-C35 + Trametinib (first compound 0.08 µM), 0.259; with IDH-C35 + Trametinib (first compound 0.253 µM) it was 0.308; in the test with IDH-C35 + Trametinib (first compound 0.8 µM), 0.324. Moreover, the relative viability was 0.257 with IDH-C35 + Trametinib (first compound 8 µM); 0.362 in test [1] (first compound 0.0025 µM); 0.272 in test [1] (first compound 0.007906 µM); 0.281 in test [1] (first compound 0.025 µM); 0.298 in test [1] (first compound 0.07906 µM); 0.361 in test [1] (first compound 0.25 µM).

Consider H3255, for which the relative viability with IDH-C35 + Pictilisib (first compound 0.08 µM) came out at 0.454; with IDH-C35 + Pictilisib (first compound 0.253 µM), 0.546; with IDH-C35 + Pictilisib (first compound 0.8 µM) it was 0.474; with IDH-C35 + Pictilisib (first compound 2.53 µM) it was 0.503; with IDH-C35 + Pictilisib (first compound 8 µM), 0.424; with IDH-C35 + Vorinostat (first compound 0.08 µM), 0.8. The relative viability in the test with IDH-C35 + Vorinostat (first compound 0.253 µM) was found to be 0.925; with IDH-C35 + Vorinostat (first compound 0.8 µM), 0.875; with IDH-C35 + Vorinostat (first compound 2.53 µM), 0.73; with IDH-C35 + Vorinostat (first compound 8 µM), 0.868; with IDH-C35 + Trametinib (first compound 0.08 µM) it was 0.699; with IDH-C35 + Trametinib (first compound 0.253 µM) it was 0.692. In addition, the relative viability with IDH-C35 + Trametinib (first compound 0.8 µM) was 0.536; with IDH-C35 + Trametinib (first compound 2.53 µM), 0.548; in the test with IDH-C35 + Trametinib (first compound 8 µM), 0.59; in test [1] (first compound 0.0025 µM) it was 0.338; in test [1] (first compound 0.007906 µM) it was 0.368; in test [1] (first compound 0.025 µM), 0.364. The relative viability was 0.389 in test [1] (first compound 0.07906 µM) and 0.39 in test [1] (first compound 0.25 µM).

On to HARA, for which the relative viability is 0.369 with IDH-C35 + Pictilisib (first compound 0.08 µM); 0.455 in the test with IDH-C35 + Pictilisib (first compound 0.253 µM); 0.483 with IDH-C35 + Pictilisib (first compound 0.8 µM); 0.415 with IDH-C35 + Pictilisib (first compound 2.53 µM); 0.328 with IDH-C35 + Pictilisib (first compound 8 µM); 0.624 in the test with IDH-C35 + Vorinostat (first compound 0.08 µM). The relative viability with IDH-C35 + Vorinostat (first compound 0.253 µM) stood at 0.436; with IDH-C35 + Vorinostat (first compound 0.8 µM), 0.517; with IDH-C35 + Vorinostat (first compound 8 µM), 0.525; with IDH-C35 + Trametinib (first compound 0.08 µM), 0.562; with IDH-C35 + Trametinib (first compound 0.253 µM), 0.649; with IDH-C35 + Trametinib (first compound 0.8 µM), 0.601. Moreover, the relative viability was determined as 0.56 with IDH-C35 + Trametinib (first compound 2.53 µM); 0.76 with IDH-C35 + Trametinib (first compound 8 µM); 0.365 in test [1] (first compound 0.0025 µM); 0.378 in test [1] (first compound 0.007906 µM); 0.309 in test [1] (first compound 0.025 µM); 0.234 in test [1] (first compound 0.07906 µM). The relative viability in test [1] (first compound 0.25 µM) worked out at 0.246.

As for HCC-15, the relative viability is 0.719 with IDH-C35 + Pictilisib (first compound 0.08 µM); 0.727 with IDH-C35 + Pictilisib (first compound 0.253 µM); 0.682 with IDH-C35 + Pictilisib (first compound 0.8 µM); 0.618 in the test with IDH-C35 + Pictilisib (first compound 2.53 µM); 0.645 with IDH-C35 + Pictilisib (first compound 8 µM); 0.796 with IDH-C35 + Vorinostat (first compound 0.08 µM). In addition, the relative viability in the test with IDH-C35 + Vorinostat (first compound 0.253 µM) came to 0.857; with IDH-C35 + Vorinostat (first compound 0.8 µM) it was 0.877; in the test with IDH-C35 + Vorinostat (first compound 8 µM), 0.707; in the test with IDH-C35 + Trametinib (first compound 0.08 µM), 0.37; in the test with IDH-C35 + Trametinib (first compound 0.253 µM) it was 0.395; in the test with IDH-C35 + Trametinib (first compound 0.8 µM), 0.428. The relative viability with IDH-C35 + Trametinib (first compound 8 µM) turned out to be 0.371; in test [1] (first compound 0.0025 µM), 0.486; in test [1] (first compound 0.007906 µM), 0.49; in test [1] (first compound 0.025 µM), 0.46; in test [1] (first compound 0.07906 µM), 0.482; in test [1] (first compound 0.25 µM) it was 0.518.
